Reference: PMC10931745 (International Journal of Molecular Sciences, 2024)

Experiments:
MDA-MB-231 = assay: MTT cell viability assay; type: cell-based, human; settings: 72 h
Summary of the method: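 Cancer lines MCF-7 and MDA-MB-231 and non-tumour MCF-10A cells were treated 72 h with compound at 0.1–500 µM. Viability read by MTT; IC50 calculated from percent of untreated control.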

[1] = test system: human mammary epithelial cell line MCF-10A; assay: MTT assay, toxicity towards normal cells; type: cell-based; settings: 72 h
Experimental: The cell lines used were purchased from American Type Culture Collection (ATCC, Manassas, VA, USA). Human breast cancer cells MCF-7 and MDA-MB-231, human mammary epithelial cell line MCF-10A, and mouse BALB/3T3 embryonic fibroblasts were cultured as already described by some of us. The murine macrophage cell line RAW 264.7 was maintained in Dulbecco’s Modified Eagle’s Medium (DMEM) high glucose (4.5 g/L) supplemented with 10% Fetal Bovine Serum (FBS), 1% L-glutamine, and 100 units/mL of penicillin/streptomycin. The cell cultures were maintained at the temperature of 37 °C in a humidified atmosphere containing 5% CO2.
The 3-(4,5-dimethylthiazol-2-yl)-2,5-diphenyl-2H-tetrazolium bromide (MTT) assay (Sigma Aldrich (St. Louis, MO, USA)) was carried out to study the in vitro anticancer activities of the complexes, following the previously reported protocol. The cells were incubated for 72 h with different concentrations of the tested compounds (0.1, 1, 10, 25, 50, 100, and 500 µM) and the IC50 values were calculated from the percent (%) of control using the software GraphPad Prism 9 (GraphPad Software, La Jolla, CA, USA).

[2] = molecular target: T1, human topoisomerase I (hTopoI) (Homo sapiens, UniProt P11387); assay: Human topoisomerase I relaxation assay; type: biochemical; settings: 1 µM, supercoiled pHOT1 DNA
T1 construct: purchased TopoGEN, Port Orange, FL, USA
T1 sequence (P11387 1-765): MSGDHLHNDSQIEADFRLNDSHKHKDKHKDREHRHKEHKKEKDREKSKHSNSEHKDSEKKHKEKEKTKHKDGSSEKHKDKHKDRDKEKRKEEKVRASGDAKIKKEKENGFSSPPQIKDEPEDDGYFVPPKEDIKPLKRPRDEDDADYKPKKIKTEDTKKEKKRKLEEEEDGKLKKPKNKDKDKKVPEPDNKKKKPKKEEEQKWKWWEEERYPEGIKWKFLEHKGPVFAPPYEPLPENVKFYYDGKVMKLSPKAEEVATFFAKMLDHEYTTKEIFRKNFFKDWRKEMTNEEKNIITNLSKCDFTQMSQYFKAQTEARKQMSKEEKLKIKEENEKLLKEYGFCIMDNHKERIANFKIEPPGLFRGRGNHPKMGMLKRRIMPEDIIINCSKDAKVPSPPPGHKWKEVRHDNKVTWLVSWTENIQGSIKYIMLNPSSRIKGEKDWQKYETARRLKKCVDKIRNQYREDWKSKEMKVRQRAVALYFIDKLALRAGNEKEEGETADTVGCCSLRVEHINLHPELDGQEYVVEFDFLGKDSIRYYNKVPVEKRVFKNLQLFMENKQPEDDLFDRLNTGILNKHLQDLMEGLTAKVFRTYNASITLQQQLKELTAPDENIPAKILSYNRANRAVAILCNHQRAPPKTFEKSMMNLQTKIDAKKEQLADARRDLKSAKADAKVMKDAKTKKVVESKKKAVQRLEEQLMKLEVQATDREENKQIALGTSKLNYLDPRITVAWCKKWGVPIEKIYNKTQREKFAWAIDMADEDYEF
Experimental: The human topoisomerase I relaxation assay was performed as reported in [86]. Shortly, the recombinant human topo I (TopoGEN, Port Orange, FL, USA) was incubated with the super-coiled pHOT1, in the presence or not of the tested compounds, at the indicated concentrations. The reaction products were then allowed to separate through the agarose gel electrophoresis, and ethidium bromide-stained DNA was visualized under UV light.

[3] = test system: TNF-α expression in MDA-MB-231 cells; assay: Immunofluorescence, TNF-α expression; type: cell-based, human; settings: 15 µM, 24 h
Experimental: After a PBS wash, cells were fixed using cold methanol (15 min at −20 °C) and incubated overnight at 4 °C with the primary antibodies raised against NF-κB, iNOS, TNF-α, and COX-1 and 2 (Santa Cruz Biotechnology Inc., Santa Cruz, CA, USA) diluted in BSA 2%, as previously described. […] DAPI (Sigma Aldrich, Milan, Italy) 0.2 µg/mL was added for 10 min for nuclei counterstaining. A fluorescence microscope (Leica DM 6000) was used for visualizing images, and LAS-X software 3.5.7.23225 was used for acquisition and processing.

[4] = test system: ROS production in BALB/3T3 fibroblasts; assay: Intracellular ROS detection with DCFH2-DA; type: cell-based, murine; settings: 25 µM, 24 h pre-treatment
Experimental: In vitro detection of intracellular ROS on fibroblasts BALB/3T3 using DCFH2-DA The assay to evaluate the in vitro antioxidant activity was carried out using the murine BALB/3T3 fibroblasts that were plated in a white 96 MW and then treated with the complexes at a concentration of 25 µM for 24 h. Menadione (25 µM) was then added for 15 min to induce ROS production. After treatment, the cells were washed with PBS and treated with 25 μM 2′-7′-dichlorofluorescein diacetate (DCFH2-DA, Sigma-Aldrich, St. Louis, MO, USA), and then they were incubated for 40 min at 37 °C and 5% CO2. The probe DCFH2-DA penetrates cells where it is […] into a non-fluorescent form (DCFH2) by endogenous esterases. In the presence of intracellular ROS, non-fluorescent H2DCF is oxidized to the fluorescent 2′,7′-dichlorofluorescein (DCF). Then, the cells were washed with PBS and the fluorescence was detected using a multiplate reader (λex = 485 nm, λem = 535 nm). Based on the obtained fluorescence values, the ROS production inhibition % (IROS) vs. menadione was calculated using the following formula:(1) IROS vs. Menadione (%)=FMen−FSample/FMen∗100 where FMen represents the mean fluorescence obtained after treatment with menadione alone and Fsample represents the mean fluorescence obtained after the co-treatment with the complexes and menadione.

[5] = test system: Escherichia coli (ATCC 25922); assay: MIC/MBC broth dilution; type: cell-based
Experimental: (§1) The bacterial strains used for MIC and MBC value determinations expressed as µg/mL by the broth dilution method, according to CLSI guidelines, were the following:
(§2) -4 Gram-negative: Escherichia coli (ATCC® 25922^TM) and Klebsiella pneumoniae (ATCC® 13883^TM);
(§3) Increasing concentrations of the complexes (50, 70, 100, 150, and 200 µg/mL) were incubated with bacteria plated in 96-well microplates at 37 °C overnight as already reported, and then bacterial growth was checked at a wavelength of 600 nm using a Multiskan spectrophotometer (model Multiskan Ex Microplate; Thermo Scientific, Nyon, Switzerland). MIC or MBC values were obtained by comparing cell density with a positive control (bacterial cells grown in LB medium were added with only the vehicle, DMSO). The results were representative of three independent experiments performed in triplicate. Ampicillin, Gentamicin, and Cephalosporin (Sigma Aldrich A9393) were used as the control for strain sensitivity.

[6] = test system: Klebsiella pneumoniae (ATCC 13883); assay: MIC/MBC broth dilution; type: cell-based
Experimental: as §1, §2, §3

IC50 (MDA-MB-231) | Inhibition of hTopo I supercoil relaxing activity [2] | Structure (SMILES) | IC50 [1] | Reduction in TNF-α expression (fluorescence quantification) [3] | ROS level reduction vs. menadione [4] | M.B.C. E. coli [5] | M.I.C. E. coli [5] | M.B.C. K. pneumoniae [6] | M.I.C. K. pneumoniae [6]
19.4 ± 1 µM | totally inhibited | CC(=O)[O][Ag-][c]1n(C)c2c(c(=O)n(C)c(=O)n2C)[n+]1C1CCCCC1O (stereo not drawn) [AgL2OAc, 1,3,7-Trimethylxanthin-9-[cyclohexan-2-ol-8-ylidene]Ag(I) Acetate] | > 100 µM | ~50% | ~59% | > 150 µg/mL | 100 µg/mL | > 150 µg/mL | 125 µg/mL
14.7 ± 1.1 µM | totally inhibited | Cn1c(=O)c2c(n(C)[c]([Au-][I])[n+]2CC(O)c2ccccc2)n(C)c1=O (racemic) [AuL1, 1,3,7-Trimethylxanthin-9-[(2-hydroxy-2-phenyl)ethyl-8-ylidene]Au(I) Iodide] | > 100 µM | about 60% | approximately 69% | > 200 µg/mL | 150 µg/mL | > 200 µg/mL | 150 µg/mL
